Laboratory results from patent publication US20220296573A1, “NOVEL COMPOUNDS AND PHARMACEUTICAL COMPOSITIONS THEREOF FOR THE TREATMENT OF INFLAMMATORY DISORDERS” (Galapagos NV, priority 2019, published 2022).
In brackets after ≈: the same amount, converted by molar mass.

How the values were obtained:
human IRAK-4 = molecular target: T1, human IRAK-4 (Homo sapiens, UniProt Q9NWZ3); experiment: Phosphorylation IC50 determination for human IRAK-4 (ADP-Glo Kinase Assay); conditions: human IRAK-4, substrate RIP140, Km ATP; read-out: IRAK4 ADPglo biochemical assay IC50
T1 construct: purchased Carna Biosciences 09 145
T1 sequence (Q9NWZ3 1-460): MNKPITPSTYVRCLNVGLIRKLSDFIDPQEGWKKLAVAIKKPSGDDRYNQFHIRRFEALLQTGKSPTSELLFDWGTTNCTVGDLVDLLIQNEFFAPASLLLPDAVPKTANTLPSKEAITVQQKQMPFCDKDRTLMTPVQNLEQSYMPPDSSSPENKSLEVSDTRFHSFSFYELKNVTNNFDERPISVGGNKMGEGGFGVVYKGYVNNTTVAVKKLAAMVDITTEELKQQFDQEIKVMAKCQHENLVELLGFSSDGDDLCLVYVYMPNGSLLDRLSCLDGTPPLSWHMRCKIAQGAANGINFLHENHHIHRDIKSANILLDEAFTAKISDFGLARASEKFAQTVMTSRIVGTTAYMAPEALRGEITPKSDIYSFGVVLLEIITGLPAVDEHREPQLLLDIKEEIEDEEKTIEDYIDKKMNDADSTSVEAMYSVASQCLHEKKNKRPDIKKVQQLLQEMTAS
Description: The phosphorylation of the substrate RIP140 (SEQ ID1) by IRAK4 at Km ATP was detected with the ADP-Glo Kinase Assay (Promega, Cat #V9103), a luminescent kinase assay which measures the ADP formed from a kinase reaction. (Zegzouti et al. 2009) In a second step the kinase reaction was terminated and all the remaining ATP was depleted. In a final step the ADP was converted into ATP and this newly synthesized ATP was measured by using a luciferase/luciferin reaction with a luminescent reader. The luminescent signal positively correlated with kinase activity, in particular kinase inhibition giving a decrease of the luminescent signal.
For the semi-automated assay, the positive control (100% inhibition) was prepared by diluting 10 mM staurosporine stock mixture (20 μL) in water (3.8 mL) and DMSO (180 μL), thus resulting in a […] staurosporine solution at 1% DMSO (final concentration after further dilution in the kinase reaction).
For the automated assay, no pre-dilution of the 10 mM staurosporine stock was made. 10 mM staurosporine was spotted directly in the assay plate using acoustic dispensing and complemented with DMSO to result in a similar final concentration as mentioned above.
For the semi-automated assay, the negative control (0% inhibition) was prepared by mixing water (3.8 mL) and DMSO (200 μL) resulting in a final concentration of 1% DMSO after further dilution in the kinase reaction. For the automated assay no pre-dilution of DMSO was done. 100% DMSO was spotted directly on the assay plate.
The assay buffer solution was prepared at a concentration corresponding to 5 fold the final (most diluted) assay concentration by mixing a solution of 125 mM TRIS pH 7.5+0.05% Triton X-100+2.5 mM EGTA (5.27 mL) with 1M mgCl2 (72 μL), 1M DTT (57.6 μL), and 200 mM MnCl2 (360 μL).
For example, for the semi-automated method, the enzyme-substrate mixture was prepared by mixing water (3999 μL), assay buffer solution (1380 μL), 1 mM RIP140 (138 μL—SEQ ID1), and 200 ng/mL IRAK 4 (3.45 μL Carna Biosciences, 09 145).
For semi-automated method, the ATP mixture was prepared at a concentration corresponding to 2.5 fold the final (most diluted) assay concentration of the semi-automated method and 1.5 fold the final (most diluted) assay concentration of the automated method. For example, for the semi-automated method, the ATP mixture was prepared by mixing water (4126 μL), assay buffer solution (1380 μL), and 10 mM ATP (13.80 μL).
The assay are performed either in a semi-automated or fully automated manner. The assay volume and the incubation time of the ADP detection were different accordingly the method used.
The compounds were prepared as a serial dilution of 10 point dose responses with 1/5 dilution steps in 100% DMSO starting from 2 mM highest concentration, diluted 1/20 in water. 1 μL was transferred dry to the assay plates.
On each assay plate 32 wells of each control (positive & negative) were added, followed by 2 μL enzyme-substrate mixture.
The reaction was started by adding 2 μL diluted ATP (final concentration Km ATP) on the assay plates. Plates were centrifuged for a few seconds at 1000 rpm followed by an incubation at r.t. for 120 min.
The reactions were stopped and the unconsumed ATP was depleted by adding 5 μL ADP-glo Reagent (Promega, Cat #V9103) to the reaction. The plates were quickly centrifuged at 1000 rpm and incubated at r.t. for 40 min corresponding to full ATP depletion.
The ADP was converted back to ATP and luciferase and luciferin were introduced to detect ATP by adding 10 μL kinase detection reagent (Promega, Cat #V9103) to the reaction. The plates were centrifuged for a few seconds at 1000 rpm and incubated at r.t. for a further 30 min.
Luminescent read out was performed on an Envision luminescent reader (Perkin Elmer).
For the automated assay, the compounds were prepared as a serial dilution of 10 point dose responses with 1/5 dilution steps in 100% DMSO starting from 2 mM highest concentration. […]

Human Hepatocyte = experiment: Metabolic stability in human hepatocytes; assay type: in vitro ADME; conditions: human cryopreserved hepatocytes, 1 μM
Description: (§1) The aim of this assay is to determine the metabolic stability of the compound in hepatocytes (cryopreserved) of different species. Low hepatocyte stability may result in the formation of unwanted metabolites, high clearance, and therefore is not desirable.
(§2) A 10 mM stock solution of test compound in DMSO was first diluted in DMSO to 3 mM, and then in modified Krebs-Henseleit buffer (Sigma, K3753) to 5 μM. This compound dilution was added to a suspension of pooled cryopreserved hepatocytes (BioreclamationIVT) at 37° C. under gentle shaking.
(§3) Final reaction conditions were: 1 μM of test compound, 0.03% DMSO, 0.5 million viable hepatocytes/mL, and 75 μL incubation volume.
(§4) Testosterone (1 μM) and 7-hydroxycoumarin (1 μM) were used, respectively as phase I and phase II metabolic reaction controls.
(§5) After 0, 10, 20, 45, 90, 120 and 180 min of incubation, the reaction was terminated with 225 μL of MeCN:MeOH (2:1) containing 100 ng/mL of diclofenac as analytical internal standard. Samples were mixed, centrifuged and the supernatant analyzed by LC-MS/MS.
(§6) The instrument responses (ratios of test compound and internal standard peak areas) were referenced to the zero time point samples (considered as 100%) in order to determine the percentage of compound remaining.
(§7) Plots of percentage compound remaining were used to determine the intrinsic clearance in the hepatocyte incubations using the following equations:
(§8) Scaled Clint [L/h/kg]=Clint [μL/min/10^6 cells]*#(10) cells/g liver*60*(1/10^6) Scaled Clint unbound [L/h/kg]=Clint [L/h/kg]/Fu,inc where: fu,inc equals hepatocyte binding, derived from microsomal binding (fu,mic) by following equation: […]

Mouse Hepatocyte = experiment: Metabolic stability in mouse hepatocytes; assay type: in vitro ADME; conditions: mouse cryopreserved hepatocytes, 1 μM
Description: as §1, §2, §3, §4, §5, §6, §7, §8

Thermodynamic solubility = assay type: physicochemical; conditions: Fasted State Simulated Intestine Fluid (FaSSIF), 37 °C, fassif, thermodynamic from solid, Fasted State Simulated Intestine Fluid, read-out: Tsol FaSSIF
Description: In a 8 mL glass vial, 1-2 mg of dry matter of compound were added and stirred with the suitable buffers (Fed State Simulated Intestine Fluid, FeSSIF, or Fasted State Simulated Intestine Fluid, FaSSIF, or Fasted State Simulated Gastric Fluid, FaSSGF, or phosphate buffer pH 7.4) for 24 h at r.t. (for the buffer pH 7.4) or 37° C. (for the GI fluids). The concentration of the mixture was 1 mg/mL.
A volume of 1000 μL were sampled, centrifuged for 10 min at 10 000 rpm and 500 μL of the supernatant were filtered on captiva plate. The samples are diluted in duplicates in DMSO (F100 and F10). Then, a final dilution (F100) in 80/20 H2O/MeCN containing the internal standard (warfarin) was used for LCMS-MS analysis.
A standard curve was made starting from a 40,000 ng/mL stock in DMSO, freshly prepared from dry matter. Then, successive concentrations at 15,000, 11,000, 6,000, 2,500, 1,000, 375, 150 and 75 ng/mL in DMSO were prepared.
Three quality control samples were made: one of 10,000, 1,500 and 200 ng/mL in DMSO, also starting from the DMSO working stock solution at 40,000 ng/mL.
The standard curve and quality controls were diluted a F100 in 80/20 H2O/MeCN (with internal standard) and analyzed on LC/MS-MS (API4000 or API5500).
The samples were analyzed on LC-MS with a flow rate of 0.6 mL/min. The mobile phase A was 0.1% formic acid in water and the mobile phase B was 0.1% formic acid in 90% MeCN and 10% of water. The sample was run under positive or negative ion spray on Pursuit C18—5 μm (2.0×20 mm) column, from Agilent.
The ratio analyte/internal standard peaks areas of the standard curve were plotted in a graph and a linear or polynomial of the second order equation was used to calculate the unknown concentrations of the test compound.
Solubility values were reported in μM and g/mL.

Row | SMILES | IC50 (human IRAK-4) | Human Hepatocyte stability (Perc. remaining at 90 min) (Human Hepatocyte) | Mouse Hepatocyte stability (Perc. remaining at 90 min) (Mouse Hepatocyte) | solubility thermodynamic at 24 h (Thermodynamic solubility)
1 | CCNC(=O)c1cc2nc(C3CCOCC3)cn2cc1NC(=O)c1cccc(C(F)(F)F)n1 [Compound 16, N-ethyl-2-(tetrahydro-2H-pyran-4-yl)-6-(6-(trifluoromethyl)picolinamido)imidazo[1,2-a]pyridine-7-carboxamide] | 10 to 50 nM | – | – | –
2 | COc1cc2nc(C3CCS(=O)(=O)CC3)cn2cc1NC(=O)c1cccn(C)c1=O [Compound 24, N-(2-(1,1-dioxidotetrahydro-2H-thiopyran-4-yl)-7-methoxyimidazo[1,2-a]pyridin-6-yl)-1-methyl-2-oxo-1,2-dihydropyridine-3-carboxamide] | 10 to 50 nM | – | – | –
3 | COc1cc2nc(C3COCCO3)cn2cc1NC(=O)c1cccc(C(F)(F)F)n1 (stereo not shown) [Compound 4, N-[2-(1,4-dioxan-2-yl)-7-methoxy-imidazo[1,2-a]pyridin-6-yl]-6-(trifluoromethyl)pyridine-2-carboxamide] | 0.1 to 5 nM | 85.9 Perc. | 103.55 Perc. | –
4 | CCOc1c(NC(=O)c2cccn(C3CC3)c2=O)cn2cc(C3CCOCC3)nc2c1F [Compound 12, 1-cyclopropyl-N-(7-ethoxy-8-fluoro-2-(tetrahydro-2H-pyran-4-yl)imidazo[1,2-a]pyridin-6-yl)-2-oxo-1,2-dihydropyridine-3-carboxamide] | 5 to 10 nM | 85.35 Perc. | 75.1 Perc. | –
5 | O=C(Nc1cn2cc(C3CCOCC3)nc2cc1C(=O)NCC(F)(F)F)c1cccc(C(F)(F)F)n1 [Compound 21, 2-(tetrahydro-2H-pyran-4-yl)-N-(2,2,2-trifluoroethyl)-6-(6-(trifluoromethyl)picolinamido)imidazo[1,2-a]pyridine-7-carboxamide] | 10 to 50 nM | – | – | –
6 | CC(F)(F)c1cccc(C(=O)Nc2cn3cc(C4COCCO4)nc3cc2C(N)=O)n1 (stereo not shown) [Compound 13, 6-(6-(1,1-difluoroethyl)picolinamido)-2-(1,4-dioxan-2-yl)imidazo[1,2-a]pyridine-7-carboxamide] | 0.1 to 5 nM | 93.85 Perc. | 72.8 Perc. | –
7 | O=C(Nc1cn2cc(C3CCOCC3)nc2cc1C(=O)NC1COC1)c1cccc(C(F)(F)F)n1 [Compound 22, N-(oxetan-3-yl)-2-(tetrahydro-2H-pyran-4-yl)-6-(6-(trifluoromethyl)picolinamido)imidazo[1,2-a]pyridine-7-carboxamide] | 10 to 50 nM | – | – | –
8 | O=C(Nc1cn2cc(C3CCOCC3)nc2cc1C(=O)NC1CC1)c1cccc(C(F)(F)F)n1 [Compound 15, N-cyclopropyl-2-(tetrahydro-2H-pyran-4-yl)-6-(6-(trifluoromethyl)picolinamido)imidazo[1,2-a]pyridine-7-carboxamide] | 10 to 50 nM | – | – | –
9 | O=C(Nc1cn2cc(C3CCOCC3)nc2cc1C(=O)NCC(F)F)c1cccc(C(F)(F)F)n1 [Compound 17, N-(2,2-difluoroethyl)-2-(tetrahydro-2H-pyran-4-yl)-6-(6-(trifluoromethyl)picolinamido)imidazo[1,2-a]pyridine-7-carboxamide] | 5 to 10 nM | – | – | –
10 | COc1cc2nc(C3COCCO3)cn2cc1NC(=O)c1cccn(C)c1=O (stereo not shown) [Compound 10, N-(2-(1,4-dioxan-2-yl)-7-methoxyimidazo[1,2-a]pyridin-6-yl)-1-methyl-2-oxo-1,2-dihydropyridine-3-carboxamide] | 10 to 50 nM | 99.95 Perc. | – | 86.2 µg/mL (≈ 224 µM)
11 | CC(C)(C)NC(=O)c1cc2nc(C3CCOCC3)cn2cc1NC(=O)c1cccc(C(F)(F)F)n1 [Compound 18, N-(tert-butyl)-2-(tetrahydro-2H-pyran-4-yl)-6-(6-(trifluoromethyl)picolinamido)imidazo[1,2-a]pyridine-7-carboxamide] | 10 to 50 nM | – | – | –
